# Test results taken from patent US20090143279A1 (priority 2007, published 2009).
# Read-outs that look alike come from different tables or passages of the source. Where a SMILES comes first, the peptide text is derived from it.
# What was measured:
# [1] = test system: C2C12 myotubes; conditions: for Viability (composite Z-score): normalized score vs mock-treated (DMSO) wells
# [2] = test system: nuOXPHOS transcripts; type: cell-based, mouse; conditions: for nucOX (composite Z-score): normalized score vs mock-treated (DMSO) wells
# [3] = test system: cytochrome c; type: cell-based, mouse; conditions: for cyt c (composite Z-score): normalized score vs mock-treated (DMSO) wells
# [4] = test system: mitochondrial membrane potential; type: cell-based, mouse; conditions: for ΔΨm (composite Z-score): normalized score vs mock-treated (DMSO) wells
# [5] = test system: mtOXPHOS transcripts; type: cell-based, mouse; conditions: for mitoOX (composite Z-score): normalized score vs mock-treated (DMSO) wells
# [6] = test system: reactive oxygen species; type: cell-based, mouse; conditions: for ROS (composite Z-score): normalized score vs mock-treated (DMSO) wells
# [7] = test system: cellular dehydrogenase activity; conditions: for MTT (composite Z-score): normalized score vs mock-treated (DMSO) wells
# [8] = test system: OXPHOS gene expression; type: cell-based, mouse; conditions: for GE-HTS (composite Z-score): normalized score vs mock-treated (DMSO) wells
# [9] = composite Z-score vs DMSO wells, Conc 20 μM
# [10] = normalized composite Z-score vs mock-treated (DMSO) wells, Conc 20 μM
# [11] = composite Z-score vs mock-treated (DMSO) wells, Conc 20 μM
# [12] = composite Z-score vs DMSO, Conc 20 μM
# [13] = Table 4, C2C12 myotubes, 48 h, composite Z-score
smiles,measurement,setting,value
NCCCC(=O)O [gamma-aminobutyric acid],Viability,[1]; [9],1.043
same,nucOX,[2]; [9],0.212
same,cyt c,[3]; [9],−0.038
same,ΔΨm,[4]; [9],0.550
same,mitoOX,[5]; [9],−0.693
same,ROS,[6]; [9],0.209
same,MTT,[7]; [9],−0.777
same,GE-HTS,[8]; [9],−0.119
COC(=O)c1c(OC)cc2c(c1C)Oc1c(Cl)c(O)c(Cl)c(C)c1C(=O)O2 [gangaleoidin],Viability,[1]; [10],0.889
same,nucOX,[2]; [10],−0.587
same,cyt c,[3]; [10],−0.876
same,ΔΨm,[4]; [10],−1.233
same,mitoOX,[5]; [10],−0.310
same,ROS,[6]; [10],1.356
same,MTT,[7]; [10],−1.213
same,GE-HTS,[8]; [10],−0.512
COc1cc(O)c2c(=O)cc(-c3ccc(O)cc3)oc2c1 [genkwanin],Viability (composite Z-score),[1]; Conc 20 μM,−0.323
same,nucOX (composite Z-score),[2]; Conc 20 μM,0.407
same,cyt c (composite Z-score),[3]; Conc 20 μM,−0.037
same,ΔΨm (composite Z-score),[4]; Conc 20 μM,−0.491
same,mitoOX (composite Z-score),[5]; Conc 20 μM,0.389
same,ROS (composite Z-score),[6]; Conc 20 μM,3.337
same,MTT (composite Z-score),[7]; Conc 20 μM,−2.090
same,GE-HTS (composite Z-score),[8]; Conc 20 μM,0.425
C=C1C[C@]23C[C@@]1(O)CC[C@H]2[C@@]12C=C[C@H](O)[C@@](C)(C(=O)O1)[C@H]2[C@@H]3C(=O)O [gibberellic acid],Viability,[1],−0.171
same,Viability,[1]; [11],−0.081
same,nucOX,[2],0.066
same,nucOX,[2]; [11],0.077
same,cyt c,[3],0.714
same,cyt c,[3]; [11],0.031
same,ΔΨm,[4],2.622
same,ΔΨm,[4]; [11],−0.439
same,mitoOX,[5],−0.090
same,mitoOX,[5]; [11],−0.264
same,ROS,[6],0.246
same,ROS,[6]; [11],0.512
same,MTT,[7],−0.432
same,MTT,[7]; [11],0.661
same,GE-HTS,[8],0.021
same,GE-HTS,[8]; [11],−0.014
COc1cc(O)c2c(=O)cc(-c3ccc(OC)c(-c4c(O)cc(O)c5c(=O)cc(-c6ccc(O)cc6)oc45)c3)oc2c1 [ginkgetin],Viability,[1]; [12],−1.523
same,nucOX,[2]; [12],−2.585
same,cyt c,[3]; [12],−3.027
same,ΔΨm,[4]; [12],−4.324
same,mitoOX,[5]; [12],−1.101
same,ROS,[6]; [12],−1.347
same,MTT,[7]; [12],−3.855
same,GE-HTS,[8]; [12],−2.228
C[C@@H]1C(=O)O[C@H]2C[C@@]34[C@H]5C[C@@H](C(C)(C)C)[C@]36[C@@H](OC(=O)[C@@H]6O)O[C@@]4(C(=O)O5)[C@]21O [ginkgolide A],Viability,[1]; [10],0.380
same,nucOX,[2]; [10],−0.286
same,cyt c,[3]; [10],0.541
same,ΔΨm,[4]; [10],−0.271
same,mitoOX,[5]; [10],−0.123
same,ROS,[6]; [10],1.848
same,MTT,[7]; [10],−1.019
same,GE-HTS,[8]; [10],−0.247
CC(=O)O[C@H]1CC[C@@]2(C)[C@H](CC[C@@H]3[C@@H]2CC[C@]2(C)[C@@H](C4=CC(=O)OC4)[C@@H](OC(C)=O)C[C@]32O)C1 [gitoxigenin diacetate],Viability,[1]; [12],0.187
same,nucOX,[2]; [12],−0.649
same,cyt c,[3]; [12],0.684
same,ΔΨm,[4]; [12],−0.792
same,mitoOX,[5]; [12],−0.322
same,ROS,[6]; [12],0.508
same,MTT,[7]; [12],−1.077
same,GE-HTS,[8]; [12],−0.594
OC[C@@H](O)[C@@H](OC1O[C@H](CO)[C@@H](O)[C@H](O)[C@H]1O)[C@H](O)[C@@H](O)CO (stereo partly drawn) [glucitol-4-gucopyanoside],Viability (composite Z-score),[1]; Conc 20 μM,−0.508
same,nucOX (composite Z-score),[2]; Conc 20 μM,−1.087
same,cyt c (composite Z-score),[3]; Conc 20 μM,0.305
same,ΔΨm (composite Z-score),[4]; Conc 20 μM,−0.454
same,mitoOX (composite Z-score),[5]; Conc 20 μM,−1.006
same,ROS (composite Z-score),[6]; Conc 20 μM,0.351
same,MTT (composite Z-score),[7]; Conc 20 μM,−0.795
same,GE-HTS (composite Z-score),[8]; Conc 20 μM,−1.143
CC(C)C[C@H](NC(=O)CN)C(=O)N[C@@H](Cc1ccccc1)C(=O)O [glycylleucylphenylalanine] (H-Gly-Leu-Phe-OH),Viability,[1]; [12],−0.254
same,nucOX,[2]; [12],0.033
same,cyt c,[3]; [12],−0.182
same,ΔΨm,[4]; [12],−0.774
same,mitoOX,[5]; [12],−0.322
same,ROS,[6]; [12],0.973
same,MTT,[7]; [12],−0.344
same,GE-HTS,[8]; [12],−0.095
CC1(C)[C@@H](O[C@H]2O[C@H](C(=O)O)[C@@H](O)[C@H](O)[C@H]2O[C@@H]2O[C@H](C(=O)O)[C@@H](O)[C@H](O)[C@H]2O)CC[C@]2(C)[C@H]3C(=O)C=C4[C@@H]5C[C@@](C)(C(=O)O)CC[C@]5(C)CC[C@@]4(C)[C@]3(C)CC[C@@H]12 [glycyrrhizic acid],Viability,[1]; [12],0.254
same,nucOX,[2]; [12],−0.227
same,cyt c,[3]; [12],0.339
same,ΔΨm,[4]; [12],−0.606
same,mitoOX,[5]; [12],−0.753
same,ROS,[6]; [12],0.578
same,MTT,[7]; [12],−0.746
same,GE-HTS,[8]; [12],−0.424
"COc1cc(OC)c2c(c1Cl)O[C@@]1(C(=O)CC(=O)C[C@H]1C)C2=O [griseofulvic acid, reference compound]",Viability,[1]; [13],0.176
same,Viability,[1]; [11],0.176
same,nucOX,[2]; [11],−0.442
same,cyt c,[3]; [11],0.724
same,ΔΨm,"[4]; Table 4, C2C12 myotubes, 48 h, JC-1, composite Z-score",−0.666
same,ΔΨm,[4]; [11],−0.666
same,mitoOX,[5]; [11],−0.209
same,ROS,[6]; [13],−0.323
same,ROS,[6]; [11],−0.323
same,MTT,[7]; [13],−0.469
same,MTT,[7]; [11],−0.469
same,GE-HTS,[8]; [11],−0.370
N=C(N)N/N=C/c1c(Cl)cccc1Cl [guanabenz],Viability,[1]; [12],−0.404
same,nucOX,[2]; [12],−0.286
same,cyt c,[3]; [12],0.420
same,ΔΨm,[4]; [12],−1.073
same,mitoOX,[5]; [12],−0.563
same,ROS,[6]; [12],1.527
same,MTT,[7]; [12],−0.886
same,GE-HTS,[8]; [12],−0.428
